The values that follow come from PMC7038073, “Substituted Piperazines as Novel Potential Radioprotective Agents” (Molecules, 2020).

Data set [1] in a line: WST-1 cytotoxicity test, SAOS-2. It counts as cell-based. Particulars: human, SAOS-2 cells, read-out: relative viability (%) compared to untreated control; for viability at 48 h, 10 µM: SAOS-2, 10 µM. On the procedure: (§1) In this study, the cytotoxic effects of nine new compounds (2, 3, 4, 5, 6, 7, 8, 9, 10) were tested on 10 human cell lines (nine cancer and one non-cancer cell line). The cell lines were treated with each compound at concentrations of 10 µM and 100 µM for 48 h. The proliferation capacity of the treated cells was determined by WST-1 test and compared against the proliferation rate of the untreated control cells (100%).
(§2) The cell lines Jurkat, MOLT-4, A2780, A549, HT-29, PANC-1, HeLa, MCF-7, SAOS-2, and MRC-5 (all purchased from Sigma Aldrich, Czech Republic) were included in this study. All cell lines were maintained according to the provider’s guidelines, and plated and treated in 96-well plates (500 to 30 × 10^3 cells per well). The tested compounds 2, 3, 4, 5, 6, 7, 8, 9, and 10 were dissolved in 0.1% DMSO and kept in 10 mM stock solutions. Before use, the stock solution was diluted in culture media at ratios of 1:100 and 1:1000. The studied cell lines were treated with the compounds 2, 3, 4, 5, 6, 7, 8, 9, and 10 at concentrations of 10 and 100 µM for 48 h. Control cells were tested in culture media with and without DMSO (0.1%). The cells were also treated with 1 µM doxorubicin as a cytotoxicity control.
(§3) The WST-1 (2-(4-iodophenyl)-3-(4-nitrophenyl)-5-(2,4-disulfophenyl)-2H-tetrazolium, monosodium salt) test (Roche, Mannheim, Germany) was used according to the manufacturer’s protocol to determine cell viability in all 10 cell lines 48 h after treatment with the tested compounds. The cells were analyzed in a Tecan Infinite M200 spectrometer (Tecan Group, Männedorf, Switzerland) at 440 nm.
In general terms: Tetrazolium assays rely on reduction of a dye to a coloured formazan, in cell work by metabolically active cells.

Data set [2] in a line: WST-1 cytotoxicity test, A2780. It counts as cell-based. Particulars: human, A2780 cells, read-out: relative viability (%) compared to untreated control; for viability at 48 h, 10 µM: A2780, 10 µM. On the procedure:
as §1, §2, §3

Data set [3] can be described thus: WST-1 cytotoxicity test, MOLT-4. Conditions: human, MOLT-4 cells, read-out: relative viability (%) compared to untreated control; for viability at 48 h, 10 µM: MOLT-4, 10 µM. The format is cell-based. On the procedure: as §1, §2, §3
The subject of another data set is A549 cells. The data set is described as follows: MTT assay, IC50 and MTC. Conditions: for MTC (maximum tolerated concentration): 24 h of treatment; for IC50: Homo sapiens, A549, 24 h, read-out: IC50 ± SEM.
The nature of data set [4]: WST-1 cytotoxicity test, MRC-5. It counts as cell-based. Particulars: human, MRC-5 cells, read-out: relative viability (%) compared to untreated control; for viability at 48 h, 10 µM: MRC-5, 10 µM. On the procedure: as §1, §2, §3
Data set [5] has as its system 10 human cell lines (nine cancer and one non-cancer cell line). Put plainly: WST-1 cytotoxicity test, statements over all cell lines. Conditions: 48 h. The format is cell-based. On the procedure:
as §1, §2, §3

Assay in data set [6]: as above
Particulars: human, 10 µM, across all the 10 cell lines tested, read-out: percentage of viable cells. It counts as cell-based, human. The protocol: as §1, §2, §3

Data set [7] is described as follows: WST-1 cytotoxicity test, HT-29. It counts as cell-based. Particulars: human, HT-29 cells, read-out: relative viability (%) compared to untreated control; for viability at 48 h, 10 µM: HT-29, 10 µM. On the procedure:
as §1, §2, §3

A short description of data set [8]: WST-1 cytotoxicity test, MCF-7. Conditions: human, MCF-7 cells, read-out: relative viability (%) compared to untreated control; for viability at 48 h, 10 µM: MCF-7, 10 µM. The format is cell-based. The protocol:
as §1, §2, §3

Data set [9] in a line: WST-1 cytotoxicity test, A549. Conditions: human, A549 cells, read-out: relative viability (%) compared to untreated control; for viability at 48 h, 10 µM: A549, 10 µM. The format is cell-based. The protocol: as §1, §2, §3
A short description of data set [10]: WST-1 cytotoxicity test, Jurkat. The format is cell-based. Conditions: human, Jurkat cells, read-out: relative viability (%) compared to untreated control. On the procedure: as §1, §2, §3
Data set [11] in a line: WST-1 cytotoxicity test, HeLa. The format is cell-based. Particulars: human, HeLa cells, read-out: relative viability (%) compared to untreated control. On the procedure: as §1, §2, §3
A short description of data set [12]: WST-1 cytotoxicity test, PANC-1. The format is cell-based. Conditions: human, PANC-1 cells, read-out: relative viability (%) compared to untreated control; for viability at 48 h, 10 µM: PANC-1, 10 µM. On the procedure:
as §1, §2, §3

The mark [13] stands for this setting: 48 h, WST-1, mean ± SD of three experiments.
Setting [14] is: 100 µM, 48 h, WST-1, mean ± SD of three experiments.
Setting [15] is: doxorubicin 1 µM cytotoxicity control, WST-1, mean ± SD.

Method for A549 cells: In further experiments, MTT (3-(4,5-di-methylthiazol-2-yl)-2,5-diphenyltetrazolium bromide) assay was employed to evaluate the toxicological indexes of the newly synthesized compounds, including IC50 (half-maximal inhibitory concentration) and MTC (maximum tolerated concentration).
IC50 and MTC were determined through MTT assays. The MTT assay was performed according to [35]. In brief, the A549 cell line was plated in 96-well plates (100 µL, 9 × 10^3 cells per well) and incubated overnight. The tested compounds were prepared in phosphate buffer saline (PBS; Sigma–Aldrich) and serially diluted in DMEM (Dulbecco’s Modified Eagle Medium). An untreated control was included as a viability standard in each plate. After 24 h of treatment, the viability of A549 cells was measured at 570 nm. All experiments were performed in triplicate. The GraphPad Prism statistics software v5.04 (GraphPad Software Inc., San Diego, CA, USA) was used to calculate the IC50 values for parameter nonlinear regression. Values are expressed as mean ± SEM.

Turning to `COc1ccc2nc3c(c(NCCN4CCNCC4)c2c1)CCCC3.Cl.Cl.Cl` [Compound 2, 7-Methoxy-N-(2-(piperazin-1-yl)ethyl)-1,2,3,4-tetrahydroacridin-9-amine trihydrochloride], the melting point (in general, the temperature of the solid-liquid transition) is 172 to 173 °C. Besides, in data set [1] (setting [13]), the viability at 48 h, 10 µM turned out to be 28 ± 2%. The viability at 48 h, 10 µM in data set [2] (setting [13]) was 44 ± 9%. Also, the viability at 48 h, 10 µM in data set [3] (setting [13]) stood at 0%. For the same compound, in the data set with A549 cells (A549 cells, MTT), the “MTC (maximum tolerated concentration)” value was 0.002 mM. In addition, the IC50 (as a rule, the concentration at which inhibition is half-maximal) in the data set on A549 cells amounted to 40 ± 2 µM. Besides, in data set [4] (setting [13]), the viability at 48 h, 10 µM is 23 ± 2%. In [5] (10 µM, tested cell lines), the “cytotoxic effect (in words)” value is given as “highly cytotoxic”. For the same compound, the viability at 48 h, 10 µM in data set [6] is below 44%. The viability at 48 h, 10 µM in data set [7] (setting [13]) was determined as 28 ± 6%. In addition, the viability at 48 h, 10 µM in data set [8] (setting [13]) worked out at 15 ± 1%. Further, the viability at 48 h, 10 µM in [9] (setting [13]) was determined as 27 ± 3%. The viability at 48 h, 10 µM in [10] (setting [13]) is 31 ± 14%. Further, in data set [11] (setting [13]), the viability at 48 h, 10 µM was determined as 25 ± 1%. Moreover, the viability at 48 h, 10 µM in data set [12] (setting [13]) amounted to 39 ± 2%.

Compound `COc1ccc2nc3c(c(NCCN4CCN(CCO)CC4)c2c1)CCCC3.Cl.Cl.Cl` [Compound 3, 7-Methoxy-N-{2-[4-(2-hydroxyethyl)piperazin-1-yl]ethyl}-1,2,3,4-tetrahydroacridin-9-amine trihydrochloride] displayed a melting point of 157 to 158 °C. Moreover, in data set [1] (setting [13]), the viability at 48 h, 10 µM turned out to be 80 ± 4%. The viability at 48 h, 100 µM in data set [1] (SAOS-2, 100 µM, 48 h, WST-1, mean ± SD of three experiments) was 10 ± 2%. Besides, the viability at 48 h, 10 µM in data set [2] (setting [13]) came to 84 ± 7%. Further, the viability at 48 h, 100 µM in data set [2] (A2780, 100 µM, 48 h, WST-1, mean ± SD of three experiments) was 20 ± 5%. Moreover, the viability at 48 h, 10 µM in data set [3] (setting [13]) worked out at 81 ± 13%. Moreover, the viability at 48 h, 100 µM in [3] (MOLT-4, 100 µM, 48 h, WST-1, mean ± SD of three experiments) worked out at 2%. Moreover, in the data set with A549 cells (A549 cells, MTT), the “IC50 fold higher than that for compound 2” value came out at 3.5 fold and the “MTC (maximum tolerated concentration)” value was found to be 0.01 mM. The IC50 with A549 cells was 140 ± 10 µM. In addition, the viability at 48 h, 10 µM in data set [4] (setting [13]) was found to be 84 ± 2%. Moreover, in data set [4] (MRC-5, 100 µM, 48 h, WST-1, mean ± SD of three experiments), the viability at 48 h, 100 µM came to 9 ± 6%. The “decrease of cell viability” value in data set [5] (100 µM, all the tested cell lines) is given as at least 70%. Moreover, in [5] (100 µM, studied cell lines), the “cytotoxic effect (in words)” value is “highly cytotoxic”. Besides, in data set [7] (setting [13]), the viability at 48 h, 10 µM was 85 ± 11%. Also, the viability at 48 h, 100 µM in data set [7] (HT-29, 100 µM, 48 h, WST-1, mean ± SD of three experiments) came to 14 ± 5%. Also, in data set [8] (setting [13]), the viability at 48 h, 10 µM amounted to 84 ± 9%. For the same compound, in [8] (MCF-7, 100 µM, 48 h, WST-1, mean ± SD of three experiments), the viability at 48 h, 100 µM came out at 10 ± 2%. Moreover, the viability at 48 h, 10 µM in data set [9] (setting [13]) came out at 94 ± 15%. For the same compound, the viability at 48 h, 100 µM in data set [9] (A549, 100 µM, 48 h, WST-1, mean ± SD of three experiments) came out at 13 ± 2%. In addition, the viability at 48 h, 10 µM in data set [10] (setting [13]) is 95 ± 9%. Further, the viability at 48 h, 100 µM in [10] (setting [14]) came to 12 ± 5%. The viability at 48 h, 10 µM in data set [11] (setting [13]) stood at 104 ± 13%. Moreover, the viability at 48 h, 100 µM in data set [11] (setting [14]) was determined as 11 ± 3%. Also, the viability at 48 h, 10 µM in [12] (setting [13]) was found to be 78 ± 6%. For the same compound, the viability at 48 h, 100 µM in data set [12] (PANC-1, 100 µM, 48 h, WST-1, mean ± SD of three experiments) was found to be 30 ± 4%.

For the compound `COc1cccc2c1C(=O)c1c(O)c3c(c(O)c1C2=O)C[C@@](O)(C(=O)CO)C[C@@H]3O[C@H]1C[C@H](N)[C@H](O)[C@H](C)O1` [DOX, doxorubicin, reference compound], the viability at 48 h, 1 µM was 22 ± 4% in data set [1] (SAOS-2, doxorubicin 1 µM cytotoxicity control, WST-1, mean ± SD); 8 ± 4% in data set [2] (A2780, doxorubicin 1 µM cytotoxicity control, WST-1, mean ± SD); 1% in data set [3] (MOLT-4, doxorubicin 1 µM cytotoxicity control, WST-1, mean ± SD); 22 ± 2% in [4] (MRC-5, doxorubicin 1 µM cytotoxicity control, WST-1, mean ± SD); 55 ± 18% in data set [7] (HT-29, doxorubicin 1 µM cytotoxicity control, WST-1, mean ± SD); 32 ± 3% in data set [8] (MCF-7, doxorubicin 1 µM cytotoxicity control, WST-1, mean ± SD). Further, the viability at 48 h, 1 µM in data set [9] (A549, doxorubicin 1 µM cytotoxicity control, WST-1, mean ± SD) came out at 42 ± 11%; in [10] (setting [15]) it was 2%; in data set [11] (setting [15]), 76 ± 12%; in [12] (PANC-1, doxorubicin 1 µM cytotoxicity control, WST-1, mean ± SD) it was 78 ± 7%.
